Test [1] has as its target T1, GLP-1R (Homo sapiens, UniProt P43220). In words: GLP-1R agonist cAMP stimulation assay (HTRF cAMP). It counts as cell-based. Conditions: HEK293 cell line expressing GLP-1 target; HTRF cAMP agonist mode, 30 min at RT. The method in brief:
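GLP-1R-expressing cells were stimulated with 10-point, 3-fold compound dilutions for 30 min at RT; HTRF cAMP detection reagents were then added for 60 min and the 665/615 ratio read. Ratios were converted to cAMP via a standard curve and % activity scaled between DMSO and top-concentration GLP-1(7-37) reference wells.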
In general terms: TR-FRET usually uses a lanthanide donor and a delayed reading to cut background.

The target of test [2] is T1, GLP-1R. In words: Tag-lite binding assay (competition with GLP-1 receptors red agonist). Conditions: for IC50: HEK293 GLP-1 cells labeled with SNAP-Lumi4-Tb, red agonist 4.917 nM, 23° C., 2 h; for Ki: calculated from sample IC50 and red agonist Kd. How it is done: B. Tag-Lite Binding Assay
The cell line was constructed by WuXi.
10) Dispense cells into cell plate (1.8 M cells/well in 2 ml medium of 6-well plate, total 4 wells).
Second Day: Tag-Lite Binding Assay
3) The cell culture medium is removed from the 6-well plate and then 1 mL of Tag-lite SNAP-Lumi4-Tb diluted in Tag-lite labeling medium are added gently on the cells.
7) The testing compounds and reference compound are serially diluted with 3-fold, 10 points using Echo, then transfer 100 nL compounds to the assay plate.
8) Add the labeled cells to each well according to the plate map, 10000 cells/10 uL/well. Centrifuge the plate at 1000 rpm for 1 min.
9) Incubate the plate at 23° C., 30 min.
10) Add 50 nL of red agonist (final conc.: 4.917 nM) to destination plate using Echo.
11) Incubate the plate at 23° C. for 2 h.
12) Read the plate on an HTRF® compatible reader (at 665 nm and 620 nm).
% Inhibition=100%−(Ratio−LC)/(HC−LC)*100%
HC: The average ratio of adding DMSO wells
LC: The average ratio of adding the top concentration of reference compounds wells
b) The “log (inhibitor) vs. response—Variable slope” model in GraphPad Prism 5.0 was used to fit the dose-response curve of each sample. The sample concentration (x) and its corresponding % Inhibition data (y) were substituted into the model. The sample concentration (abscissa) was x=log(x) transformed. The transformed xy was used as the sample curve to obtain the IC50.
c) Calculate the sample Ki according to the sample IC50 and red agonist Kd. S in the formula is the actual used concentration of red agonist.

T1 sequence (P43220 24-463): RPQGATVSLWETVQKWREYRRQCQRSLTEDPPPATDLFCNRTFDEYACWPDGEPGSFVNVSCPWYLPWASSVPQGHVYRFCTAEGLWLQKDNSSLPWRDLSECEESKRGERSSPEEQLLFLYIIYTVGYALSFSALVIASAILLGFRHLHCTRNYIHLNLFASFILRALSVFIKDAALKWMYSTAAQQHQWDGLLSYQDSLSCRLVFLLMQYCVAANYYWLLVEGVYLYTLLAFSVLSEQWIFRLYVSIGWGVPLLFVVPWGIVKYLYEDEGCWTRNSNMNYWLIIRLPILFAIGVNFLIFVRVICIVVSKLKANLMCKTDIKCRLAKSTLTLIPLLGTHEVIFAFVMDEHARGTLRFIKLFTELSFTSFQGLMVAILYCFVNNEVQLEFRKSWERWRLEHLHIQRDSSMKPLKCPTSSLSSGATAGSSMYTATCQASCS

Turning to `O=C(NCC(=O)N1C[C@H](O)C[C@H]1C(=O)O)c1ccc2c(c1)nc(CN1CCC(c3cccc(OCc4ccc(Cl)cc4F)n3)CC1)n2C[C@@H]1CCO1` [Compound 2, (2S,4R)-1-((2-((4-(6-((4-chloro-2-fluorobenzyl)oxy)pyridin-2-yl)piperidin-1-yl)methyl)-1-(((S)-oxetan-2-yl)methyl)-1H-benzo[d]imidazole-5-carbonyl)glycyl)-4-hydroxypyrrolidine-2-carboxylic acid], the EC50 (commonly the concentration that produces a half-maximal response) in test [1] was 0.32 nM. Besides, in test [2], the IC50 (in general, the concentration that gives 50% inhibition) worked out at 345 nM and the Ki – broadly, the equilibrium dissociation constant of an inhibitor or competing ligand from its target – is 165 nM.

Regarding `Cc1n[nH]c2c(F)cc(C(=O)Nc3ccc4c(c3)nc(Cc3cc(F)c(-c5cccc(OCc6ccc(Cl)cc6F)n5)cc3CO)n4C[C@@H]3CCO3)cc12` [Compound 416], in test [1], the EC50 is 0.37 nM. In addition, in test [2], the IC50 worked out at 54.3 nM and the inhibition constant (Ki) was 29.3 nM.

Take `Cc1n[nH]c2c(F)cc(C(=O)Nc3ccc4c(c3)nc(Cc3c(F)cc(-c5cccc6c5O[C@@](C)(c5ccc(Cl)cn5)O6)cc3F)n4CC3CCO3)cc12` (stereo partly drawn) [Compound 386]: the EC50 in test [1] was found to be 0.15 nM. In addition, in test [2], the IC50 stood at 120 nM and the Ki was 69.9 nM.

These data come from patent US20230271949A1, “GLP-1R MODULATING COMPOUNDS” (ASCLETIS BIOSCIENCE CO., LTD., priority 2022, published 2023).
